# PubChem BioAssay AID2060328 (Molecular Pharmacology Branch, DTP, NCI, 2025)
# Tested on: MDA-MB-231 multicell spheroids, viability (%T/C)
# Test: Anticancer human tumor MDA-MB-231 cell line growth inhibition [IpAb];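 also: viability read after seven days of drug exposure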;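 as to viability, T/C: 100% = DMSO vehicle control viability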
# Details: for IC50: curve of first compound; for viability, T/C: stronger effect = lower value
# Procedure, shortened: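 Spheroids of 60% malignant cells, 25% HUVEC and 15% MSC were exposed to targeted agents combined with ipatasertib or abemaciclib. Doses started at or near clinical Cmax (10 microM when unknown) and fell in half-log steps.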
# [1] = second compound 0.01 µM, first compound 0.0316 µM
# [2] = second compound 0.01 µM, first compound 0.1 µM
# [3] = second compound 0.01 µM, first compound 0.316 µM
# [4] = second compound 0.01 µM, first compound 1 µM
# [5] = second compound 0.01 µM, first compound 3.16 µM
# [6] = second compound 0.01 µM, first compound 10 µM
# [7] = second compound 0.0316 µM, first compound 0.0316 µM
# [8] = second compound 0.0316 µM, first compound 0.1 µM
# [9] = second compound 0.0316 µM, first compound 0.316 µM
# [10] = second compound 0.0316 µM, first compound 1 µM
# [11] = second compound 0.0316 µM, first compound 3.16 µM
# [12] = second compound 0.0316 µM, first compound 10 µM
# [13] = second compound 0.1 µM, first compound 0.0316 µM
# [14] = second compound 0.1 µM, first compound 0.1 µM
# [15] = second compound 0.1 µM, first compound 0.316 µM
# [16] = second compound 0.1 µM, first compound 1 µM
# [17] = second compound 0.1 µM, first compound 3.16 µM
# [18] = second compound 0.1 µM, first compound 10 µM
# [19] = second compound 0.316 µM, first compound 0.0316 µM
# [20] = second compound 0.316 µM, first compound 0.1 µM
# [21] = second compound 0.316 µM, first compound 0.316 µM
# [22] = second compound 0.316 µM, first compound 1 µM
# [23] = second compound 0.316 µM, first compound 3.16 µM
# [24] = second compound 0.316 µM, first compound 10 µM
# [25] = second compound 1 µM, first compound 0.0316 µM
# [26] = second compound 1 µM, first compound 0.1 µM
# [27] = second compound 1 µM, first compound 0.316 µM
# [28] = second compound 1 µM, first compound 1 µM
# [29] = second compound 1 µM, first compound 3.16 µM
# [30] = second compound 1 µM, first compound 10 µM
smiles,measurement,setting,value
C=CCn1c(=O)c2cnc(Nc3ccc(N4CCN(C)CC4)cc3)nc2n1-c1cccc(C(C)(C)O)n1 + CCN1CCN(Cc2ccc(Nc3ncc(F)c(-c4cc(F)c5nc(C)n(C(C)C)c5c4)n3)nc2)CC1,IC50,second compound 0.01 µM,239 nM
same,IC50,second compound 0.0316 µM,208 nM
same,IC50,second compound 0.1 µM,177 nM
same,IC50,second compound 0.316 µM,33.4 nM
same,IC50,second compound 1 µM,325 nM
same,"viability, T/C",[1],88.8%
same,"viability, T/C",[2],85%
same,"viability, T/C",[3],38.6%
same,"viability, T/C",[4],20.3%
same,"viability, T/C",[5],15.4%
same,"viability, T/C",[6],20%
same,"viability, T/C",[7],80.1%
same,"viability, T/C",[8],69.3%
same,"viability, T/C",[9],38.9%
same,"viability, T/C",[10],23%
same,"viability, T/C",[11],17.9%
same,"viability, T/C",[12],20%
same,"viability, T/C",[13],59.8%
same,"viability, T/C",[14],56.8%
same,"viability, T/C",[15],43.1%
same,"viability, T/C",[16],26.1%
same,"viability, T/C",[17],19.9%
same,"viability, T/C",[18],21.2%
same,"viability, T/C",[19],47.4%
same,"viability, T/C",[20],48.7%
same,"viability, T/C",[21],42.5%
same,"viability, T/C",[22],32.9%
same,"viability, T/C",[23],24.8%
same,"viability, T/C",[24],26.4%
same,"viability, T/C",[25],51.8%
same,"viability, T/C",[26],51.7%
same,"viability, T/C",[27],50.5%
same,"viability, T/C",[28],48.5%
same,"viability, T/C",[29],41%
same,"viability, T/C",[30],36.5%
CC(C)n1nc(-c2ccc3oc(N)nc3c2)c2c(N)ncnc21 + CCN1CCN(Cc2ccc(Nc3ncc(F)c(-c4cc(F)c5nc(C)n(C(C)C)c5c4)n3)nc2)CC1,IC50,second compound 0.01 µM,7.66 nM
same,IC50,second compound 0.0316 µM,2.71 nM
same,IC50,second compound 0.1 µM,0.66 nM
same,IC50,second compound 0.316 µM,< 0.316 nM
same,IC50,second compound 1 µM,< 0.316 nM
same,"viability, T/C","second compound 0.01 µM, first compound 0.000316 µM",90.3%
same,"viability, T/C","second compound 0.01 µM, first compound 0.001 µM",85.6%
same,"viability, T/C","second compound 0.01 µM, first compound 0.00316 µM",65.5%
same,"viability, T/C","second compound 0.01 µM, first compound 0.01 µM",45.9%
same,"viability, T/C",[1],34.6%
same,"viability, T/C",[2],32.3%
same,"viability, T/C","second compound 0.0316 µM, first compound 0.000316 µM",73.7%
same,"viability, T/C","second compound 0.0316 µM, first compound 0.001 µM",64.5%
same,"viability, T/C","second compound 0.0316 µM, first compound 0.00316 µM",48.2%
same,"viability, T/C","second compound 0.0316 µM, first compound 0.01 µM",33.1%
same,"viability, T/C",[7],28.8%
same,"viability, T/C",[8],26.8%
same,"viability, T/C","second compound 0.1 µM, first compound 0.000316 µM",55.1%
same,"viability, T/C","second compound 0.1 µM, first compound 0.001 µM",47%
same,"viability, T/C","second compound 0.1 µM, first compound 0.00316 µM",37.4%
same,"viability, T/C","second compound 0.1 µM, first compound 0.01 µM",30.2%
same,"viability, T/C",[13],27.6%
same,"viability, T/C",[14],27.6%
same,"viability, T/C","second compound 0.316 µM, first compound 0.000316 µM",41.7%
same,"viability, T/C","second compound 0.316 µM, first compound 0.001 µM",38%
same,"viability, T/C","second compound 0.316 µM, first compound 0.00316 µM",31.4%
same,"viability, T/C","second compound 0.316 µM, first compound 0.01 µM",30.1%
same,"viability, T/C",[19],29.6%
same,"viability, T/C",[20],29.3%
same,"viability, T/C","second compound 1 µM, first compound 0.000316 µM",47.1%
same,"viability, T/C","second compound 1 µM, first compound 0.001 µM",45%
same,"viability, T/C","second compound 1 µM, first compound 0.00316 µM",39.8%
same,"viability, T/C","second compound 1 µM, first compound 0.01 µM",45.4%
same,"viability, T/C",[25],47.4%
same,"viability, T/C",[26],49.8%
CC1(C)CCC(CN2CCN(c3ccc(C(=O)NS(=O)(=O)c4ccc(NCC5CCOCC5)c([N+](=O)[O-])c4)c(Oc4cnc5[nH]ccc5c4)c3)CC2)=C(c2ccc(Cl)cc2)C1 + CCN1CCN(Cc2ccc(Nc3ncc(F)c(-c4cc(F)c5nc(C)n(C(C)C)c5c4)n3)nc2)CC1,IC50,second compound 0.01 µM,5850 nM
same,IC50,second compound 0.0316 µM,5150 nM
same,IC50,second compound 0.1 µM,4260 nM
same,IC50,second compound 0.316 µM,< 31.6 nM
same,IC50,second compound 1 µM,3220 nM
same,"viability, T/C",[1],102%
same,"viability, T/C",[2],97.5%
same,"viability, T/C",[3],100%
same,"viability, T/C",[4],101%
same,"viability, T/C",[5],94.8%
same,"viability, T/C",[6],11%
same,"viability, T/C",[7],86.7%
same,"viability, T/C",[8],81.8%
same,"viability, T/C",[9],82.2%
same,"viability, T/C",[10],83.2%
same,"viability, T/C",[11],78.6%
same,"viability, T/C",[12],11.2%
same,"viability, T/C",[13],64.2%
same,"viability, T/C",[14],66.6%
same,"viability, T/C",[15],63.9%
same,"viability, T/C",[16],65%
same,"viability, T/C",[17],66.4%
same,"viability, T/C",[18],6.54%
same,"viability, T/C",[19],50.5%
same,"viability, T/C",[20],50.4%
same,"viability, T/C",[21],48.2%
same,"viability, T/C",[22],47.9%
same,"viability, T/C",[23],44.8%
same,"viability, T/C",[24],7.02%
same,"viability, T/C",[25],48.2%
same,"viability, T/C",[26],52.7%
same,"viability, T/C",[27],52.9%
same,"viability, T/C",[28],53.4%
same,"viability, T/C",[29],50.7%
same,"viability, T/C",[30],7.14%
CCCS(=O)(=O)Nc1ccc(F)c(C(=O)c2c[nH]c3ncc(-c4ccc(Cl)cc4)cc23)c1F + CCN1CCN(Cc2ccc(Nc3ncc(F)c(-c4cc(F)c5nc(C)n(C(C)C)c5c4)n3)nc2)CC1,IC50,second compound 0.01 µM,6840 nM
same,IC50,second compound 0.0316 µM,4640 nM
same,IC50,second compound 0.1 µM,2900 nM
same,IC50,second compound 0.316 µM,887 nM
same,IC50,second compound 1 µM,550 nM
same,"viability, T/C",[1],105%
same,"viability, T/C",[2],104%
same,"viability, T/C",[3],110%
same,"viability, T/C",[4],93.9%
same,"viability, T/C",[5],70.5%
same,"viability, T/C",[6],40.1%
same,"viability, T/C",[7],82.9%
same,"viability, T/C",[8],87.4%
same,"viability, T/C",[9],86.4%
same,"viability, T/C",[10],80.2%
same,"viability, T/C",[11],57.6%
same,"viability, T/C",[12],34.9%
same,"viability, T/C",[13],70.5%
same,"viability, T/C",[14],66.4%
same,"viability, T/C",[15],66.6%
same,"viability, T/C",[16],62.8%
same,"viability, T/C",[17],48.8%
same,"viability, T/C",[18],32.9%
same,"viability, T/C",[19],52.8%
same,"viability, T/C",[20],53.5%
same,"viability, T/C",[21],51%
same,"viability, T/C",[22],47.8%
same,"viability, T/C",[23],44.3%
same,"viability, T/C",[24],23.4%
same,"viability, T/C",[25],51.9%
same,"viability, T/C",[26],55%
same,"viability, T/C",[27],53.1%
same,"viability, T/C",[28],45.6%
same,"viability, T/C",[29],43.8%
same,"viability, T/C",[30],32.6%
Cn1cnc2c(F)c(Nc3ccc(Br)cc3Cl)c(C(=O)NOCCO)cc21 + CCN1CCN(Cc2ccc(Nc3ncc(F)c(-c4cc(F)c5nc(C)n(C(C)C)c5c4)n3)nc2)CC1,IC50,second compound 0.01 µM,34.1 nM
same,IC50,second compound 0.0316 µM,< 9.49 nM
same,IC50,second compound 0.1 µM,< 9.49 nM
same,IC50,second compound 0.316 µM,< 9.49 nM
same,IC50,second compound 1 µM,< 9.49 nM
same,"viability, T/C","second compound 0.01 µM, first compound 0.00949 µM",54.5%
same,"viability, T/C","second compound 0.01 µM, first compound 0.03 µM",53.4%
same,"viability, T/C","second compound 0.01 µM, first compound 0.0949 µM",42.8%
same,"viability, T/C","second compound 0.01 µM, first compound 0.3 µM",36.9%
same,"viability, T/C","second compound 0.01 µM, first compound 0.949 µM",32.3%
same,"viability, T/C","second compound 0.01 µM, first compound 3 µM",20.4%
same,"viability, T/C","second compound 0.0316 µM, first compound 0.00949 µM",46.3%
same,"viability, T/C","second compound 0.0316 µM, first compound 0.03 µM",40.9%
same,"viability, T/C","second compound 0.0316 µM, first compound 0.0949 µM",35.9%
same,"viability, T/C","second compound 0.0316 µM, first compound 0.3 µM",30.9%
same,"viability, T/C","second compound 0.0316 µM, first compound 0.949 µM",25.5%
same,"viability, T/C","second compound 0.0316 µM, first compound 3 µM",13.3%
same,"viability, T/C","second compound 0.1 µM, first compound 0.00949 µM",36.9%
same,"viability, T/C","second compound 0.1 µM, first compound 0.03 µM",30.1%
same,"viability, T/C","second compound 0.1 µM, first compound 0.0949 µM",29.6%
same,"viability, T/C","second compound 0.1 µM, first compound 0.3 µM",25.4%
same,"viability, T/C","second compound 0.1 µM, first compound 0.949 µM",19.2%
same,"viability, T/C","second compound 0.1 µM, first compound 3 µM",12.2%
same,"viability, T/C","second compound 0.316 µM, first compound 0.00949 µM",28.2%
same,"viability, T/C","second compound 0.316 µM, first compound 0.03 µM",27%
same,"viability, T/C","second compound 0.316 µM, first compound 0.0949 µM",22%
same,"viability, T/C","second compound 0.316 µM, first compound 0.3 µM",19.2%
same,"viability, T/C","second compound 0.316 µM, first compound 0.949 µM",16.1%
same,"viability, T/C","second compound 0.316 µM, first compound 3 µM",9.49%
same,"viability, T/C","second compound 1 µM, first compound 0.00949 µM",28.7%
same,"viability, T/C","second compound 1 µM, first compound 0.03 µM",25.3%
same,"viability, T/C","second compound 1 µM, first compound 0.0949 µM",20.1%
same,"viability, T/C","second compound 1 µM, first compound 0.3 µM",17.4%
same,"viability, T/C","second compound 1 µM, first compound 0.949 µM",14.9%
same,"viability, T/C","second compound 1 µM, first compound 3 µM",10.7%
